The text below walks through data of PMC3816703, “Toxicity Studies on Novel N-Substituted Bicyclo-Heptan-2-Amines at NMDA Receptors” (Pharmaceuticals, 2013).

Read-outs that look alike come from different tables or passages of the source. Where only a bound is given, the exact number is not on record here.

Data set [1] is described as follows: MTT cell viability assay on N2a cells (24 h treatment). Format: cell-based, Mouse. To be noted: mouse, N2a cells, 24 h, as compared to untreated cells, read-out: mean percentage of viable cells. As for the experimental part: (§1) To examine neuronal cell toxicity, N2a cells were exposed to each of compounds 5a–f or memantine for 24 h at 0–500 µM concentrations, and cell viability was measured by MTT assay. In the present experiments, increasing the concentration of antagonists increased the toxicity of both test compounds and memantine in dose dependent manner (Figure 4A,B). […] No significant reduction in cell concentration was observed using phase contrast microscopy (Figure 5). The mean percentage of viable cells was 94.6 ± 0.29 (p > 0.05), 91.6 ± 0.26 (p > 0.05) for memantine and 93 ± 0.35 (p > 0.05), 77 ± 0.35 (p > 0.05) for compound 5a at 10 and 50 µM, respectively, as compared to untreated cells.
(§2) Mouse Neuro-2a (CCL-131, ATCC, Manassas, VA, USA) and MDCK (CCL-34, ATCC) were used in this study. The cells were routinely propagated using Dulbecco’s Modification of Eagle’s Medium (DMEM, ATCC) for N2a and Eagle’s Minimum Essential Medium (EMEM, ATCC) for MDCK cells, supplemented with 10% fetal bovine serum (FBS, ATCC) and 1% penicillin/ streptomycin (Gibco, Grand Island, NY, USA) in 100 cm^2 Petri-dishes (Corning, Tewksbury, MA, USA) at 37 °C in 5% CO2. For neuronal differentiation, N2a cells were cultivated in DMEM supplemented with 2% FBS in the presence of 20 µM retinoic acid (RA, Sigma, St. Louis, MO, USA).
(§3) All six compounds 5a–f were obtained as salts. Stock solutions (1 mM) were prepared in double distilled water. The treatment concentrations for the compounds and for memantine (Sigma) were 10, 50, 100, 200, 300, and 500 μM. Cells were allowed to attach overnight prior to treatment. H2O2 served as positive control. Working concentrations were prepared immediately prior to treatment by dilution with medium.
(§4) The MTT (3-(4,5-dimethylthiazole-2-yl)-2,5-diphenyltetrazolium bromide) assay is a well-documented and widely-used cell viability assay. MTT is incorporated into the cell by endocytosis and is reduced by mitochondrial enzymes in living cells to a blue colored formazan precipitate. The absorbance of dissolved formazan in the visible region correlates with the number of intact alive cells. Cells were plated at a concentration of 13,000 to 20,000 cells/well on a 96-well round-bottom plate (Fisher, Pittsburgh, PA, USA). The MTT assay (ATCC, 30-1010K) was performed according to the manufacturer’s instructions. The following determinants were optimized for each cell line: plating cell concentration; incubation time with MTT reagent, and incubation time with detergent reagent. Absorbance was recorded at 570 nm by a microtiter plate reader (VICTOR, PerkinElmer, Waltham, MA, USA). The number of surviving cells is directly proportional to the level of the formazan product generated. Each experiment was repeated on three separate occasions and results are presented as the mean absorbance ± S.E.M.
(§5) The Student’s t test was applied to evaluate the significance of differences among each group. A p value of 0.05 or less was considered to be significant. Error bars in the graphs are expressed as S.E.M. with experiments performed in triplicate. IC50 values were calculated according to the SoftMax Pro GxP analytical software. Standard Curves were plotted using the OD Mean Value (Y) versus Concentration (X) and applying a 4-Parameter fit with a variable weight source curve fit option of 1/Y^2. Results are presented as mean ± S.E.M.

In the next data set the test system is N2a cells. The description is as above. Format: cell-based, Mouse. To be noted: Mus musculus, read-out: MTT test (IC50). Here is the method:
as §1, §2, §3, §4, §5

In a further data set the test system is MDCK cells. Put plainly: MTT cell viability assay on MDCK cells (24 h treatment). Format: cell-based, Canine. As to conditions: for IC50: Canis lupus familiaris, read-out: MTT test (IC50). As for the experimental part: (§6) MDCK cells were used to simulate toxicities of the novel NMDA receptor uncompetitive antagonists 5a–f on BBB in vitro [18, 19]. We treated cells with 0–500 µM concentrations of test compound or memantine for 24 h. Cell viability was assessed by the capacity of cells to reduce the MTT dye (Figure 2A,B). […] It is known, that under therapeutic conditions in patients, the serum level of memantine is about 1 µM [20]. Since the binding potencies of some of the target compounds are in same range (micromolar) as that of memantine, the 1 µM concentration was used as reference in estimating possible therapeutic indexes. […] The mean percentage of viable cells was 101 ± 0.24 (p > 0.05), 95.6 ± 0.25 (p > 0.05) for memantine and 104 ± 0.11 (p > 0.05), 105 ± 0.06 (p > 0.05) for compound 5a at 10 and 50 µM, respectively, as compared to untreated cells.
as §2, §3, §4, §5
Background: Tetrazolium dyes change colour on reduction, which living cells bring about.

Assay in data set [2]: as above
Format: cell-based, Canine. As to conditions: dog, MDCK cells, 24 h, as compared to untreated cells, read-out: mean percentage of viable cells. Here is the method:
as §6, §2, §3, §4, §5

In another data set the test system is NMDA receptor. Set-up: method as in PMID 21496213. To be noted: among compounds 5a–f; cited from earlier work.
The test system of data set [3] is MES (maximal electroshock)-induced neural damage. Also on record: method as in PMID 21496213. As to conditions: rodents; among compounds 5a–f; cited from earlier work.
The conditions of data set [4]: patients; cited from earlier work.
[5] abbreviates: N2a cells, 24 h treatment, mean n = 3, concentration yielding 50% inhibition of mitochondrial enzyme activity.

A word on the IC50: it is the midpoint of a concentration-inhibition curve. Take `c1ccc(C2(NCCN3CCCCC3)CC3CCC2C3)cc1` (centres unmarked) [5a, 2-phenyl-N-(2-(piperidin-1-yl)ethyl)bicyclo[2.2.1]heptan-2-amine]: the viability at 24 h, 10 µM in data set [1] turned out to be 93 ± 0.35%; in data set [2], 104 ± 0.11%. The values for the viability at 24 h, 50 µM in data set [1] and in data set [2] were 77 ± 0.35% and 105 ± 0.06%, respectively. Further, the IC50 turned out to be 154 µM in the data set on N2a cells (N2a, 24 h) and 155 µM in the data set on MDCK cells (MDCK, 24 h). Also, the “affinity for NMDA receptor” value in the data set on NMDA receptor was “highest affinity”. For the same molecule, in data set [3], the “protection from MES (maximal electroshock)-induced neural damage” value is “greatest degree of protection”.

For `Fc1ccc(C2(NCCN3CCCC3)CC3CCC2C3)cc1` (centres unmarked) [5f], the IC50 worked out at 71 µM with N2a cells (setting [5]) and 305 µM in the data set on MDCK cells (MDCK, 24 h).

Consider `CC12CC3CC(C)(C1)CC(N)(C3)C2` [memantine, 1-amino-3,5-dimethyladamantine, reference compound], for which the results for the viability at 24 h, 10 µM in data set [1] and in data set [2] were 94.6 ± 0.29% and 101 ± 0.24%, respectively. Further, the viability at 24 h, 50 µM in data set [1] was 91.6 ± 0.26%; in data set [2], 95.6 ± 0.25%. Also, the IC50 worked out at 219 µM with N2a cells (setting [5]) and 197 µM in the data set with MDCK cells (MDCK cells, 24 h treatment, mean n = 3, concentration yielding 50% inhibition of mitochondrial enzyme activity). For the same molecule, the “concentration above which a concentration dependent decline in numbers of viable cells occurs” value with MDCK cells (MDCK cells, 0–500 µM, 24 h, MTT) is listed as “higher than 100 µM”. In addition, the “serum level under therapeutic conditions” value in data set [4] is listed as “about 1 µM”.

Consider `c1ccc(C2(NCCN3CCOCC3)CC3CCC2C3)cc1` (centres unmarked) [5c, N-(2-morpholinoethyl)-2-phenylbicyclo [2.2.1]heptan-2-amine], for which the IC50 with N2a cells (N2a, 24 h) worked out at 253 µM; in the data set with MDCK cells (MDCK, 24 h) it was 424 µM.

`Fc1ccc(C2(NCCN3CCOCC3)CC3CCC2C3)cc1` (centres unmarked) [5d, 2-(4-fluorophenyl)-N-(2-morpholino-ethyl)bicyclo [2.2.1]heptan-2-amine]: the IC50 in the data set with N2a cells (setting [5]) is above 1000 µM; with MDCK cells (MDCK, 24 h), above 1000 µM.

Take `Fc1ccc(C2(NCCN3CCCCC3)CC3CCC2C3)cc1` (centres unmarked) [5b]: the IC50 with N2a cells (N2a, 24 h) was found to be 291 µM; in the data set with MDCK cells (MDCK, 24 h), 201 µM.

With `c1ccc(C2(NCCN3CCCC3)CC3CCC2C3)cc1` (centres unmarked) [5e, 2-phenyl-N-(2-(pyrrolidin-1-yl)ethyl) bicyclo[2.2.1]heptan-2-amine], the IC50 amounted to 165 µM with N2a cells (N2a, 24 h) and 313 µM in the data set on MDCK cells (MDCK, 24 h).
